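Following 48 hours of exposure in 96-well plates, responses at five concentrations were used to interpolate endpoints linearly. At the TGI there is no net growth.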
Key:
Assay in all cases: inhibition of tumour cell growth, NCI panel, 48 h
786-0 renal = test system: 786-0 renal
A498 renal = test system: A498 renal
A549 NSCLC = test system: A549 NSCLC
ACHN renal = test system: ACHN renal
CAKI-1 renal = test system: CAKI-1 renal
CCRF-CEM leukemia = test system: CCRF-CEM leukemia
COLO 205 colon = test system: COLO 205 colon
DLD-1 colon = test system: DLD-1 colon
DMS 114 small cell lung = test system: DMS 114 small cell lung
DMS 273 small cell lung = test system: DMS 273 small cell lung
EKVX NSCLC = test system: EKVX NSCLC
HCC-2998 colon = test system: HCC-2998 colon
HCT-116 colon = test system: HCT-116 colon
HCT-15 colon = test system: HCT-15 colon
HL-60(TB) leukemia = test system: HL-60(TB) leukemia
HOP-18 NSCLC = test system: HOP-18 NSCLC
HOP-62 NSCLC = test system: HOP-62 NSCLC
HOP-92 NSCLC = test system: HOP-92 NSCLC
HT29 colon = test system: HT29 colon
IGROV1 ovarian = test system: IGROV1 ovarian
K-562 leukemia = test system: K-562 leukemia
KM12 colon = test system: KM12 colon
KM20L2 colon = test system: KM20L2 colon
LOX IMVI melanoma = test system: LOX IMVI melanoma
LXFL 529 NSCLC = test system: LXFL 529 NSCLC
M14 melanoma = test system: M14 melanoma
M19-MEL melanoma = test system: M19-MEL melanoma
MALME-3M melanoma = test system: MALME-3M melanoma
MOLT-4 leukemia = test system: MOLT-4 leukemia
NCI-H226 lung = test system: NCI-H226 lung
NCI-H23 lung = test system: NCI-H23 lung
NCI-H460 lung = test system: NCI-H460 lung
NCI-H522 lung = test system: NCI-H522 lung
OVCAR-3 ovarian = test system: OVCAR-3 ovarian
OVCAR-4 ovarian = test system: OVCAR-4 ovarian
OVCAR-5 ovarian = test system: OVCAR-5 ovarian
OVCAR-8 ovarian = test system: OVCAR-8 ovarian
RPMI-8226 leukemia = test system: RPMI-8226 leukemia
RXF 393 renal = test system: RXF 393 renal
RXF-631 renal = test system: RXF-631 renal
SF-268 CNS = test system: SF-268 CNS
SF-295 CNS = test system: SF-295 CNS
SF-539 CNS = test system: SF-539 CNS
SK-MEL-2 melanoma = test system: SK-MEL-2 melanoma
SK-MEL-28 melanoma = test system: SK-MEL-28 melanoma
SK-MEL-5 melanoma = test system: SK-MEL-5 melanoma
SK-OV-3 ovarian = test system: SK-OV-3 ovarian
SN12C renal = test system: SN12C renal
SNB-19 CNS = test system: SNB-19 CNS
SNB-75 CNS = test system: SNB-75 CNS
SW-620 colon = test system: SW-620 colon
TK-10 renal = test system: TK-10 renal
U251 CNS = test system: U251 CNS
UACC-62 melanoma = test system: UACC-62 melanoma
UACC-257 melanoma = test system: UACC-257 melanoma
UO-31 renal = test system: UO-31 renal
SNB-78 CNS = test system: SNB-78 CNS

For `Cc1cc(=O)oc2cc(OCc3nc4ccccc4c(=O)n3-c3ccccc3)ccc12`, the TGI (786-0 renal) was over 100 µM, the TGI (A498 renal) was over 100 µM and the TGI (A549 NSCLC) was over 100 µM. The TGI (ACHN renal) was over 100 µM, the TGI (CAKI-1 renal) was over 100 µM and the TGI (CCRF-CEM leukemia) was over 100 µM. It also gave a TGI (COLO 205 colon) of over 100 µM, a TGI (DLD-1 colon) of over 100 µM and a TGI (DMS 114 small cell lung) of over 100 µM. It also gave a TGI (DMS 273 small cell lung) of over 100 µM, a TGI (EKVX NSCLC) of over 100 µM and a TGI (HCC-2998 colon) of over 100 µM. For the same compound, the TGI (HCT-116 colon) was over 100 µM, the TGI (HCT-15 colon) was over 100 µM and the TGI (HL-60(TB) leukemia) was over 100 µM. The TGI (HOP-18 NSCLC) was over 100 µM, the TGI (HOP-62 NSCLC) was over 100 µM and the TGI (HOP-92 NSCLC) was 96.4 µM. For the same compound, the TGI (HT29 colon) was over 100 µM, the TGI (IGROV1 ovarian) was over 100 µM and the TGI (K-562 leukemia) was over 100 µM. It also gave a TGI (KM12 colon) of over 100 µM, a TGI (KM20L2 colon) of over 100 µM and a TGI (LOX IMVI melanoma) of over 100 µM. It also gave a TGI (LXFL 529 NSCLC) of over 100 µM, a TGI (M14 melanoma) of over 100 µM and a TGI (M19-MEL melanoma) of over 100 µM. The TGI (MALME-3M melanoma) was over 100 µM, the TGI (MOLT-4 leukemia) was over 100 µM and the TGI (NCI-H226 lung) was over 100 µM. For the same compound, the TGI (NCI-H23 lung) was over 100 µM, the TGI (NCI-H460 lung) was over 100 µM and the TGI (NCI-H522 lung) was over 100 µM. The TGI (OVCAR-3 ovarian) was over 100 µM, the TGI (OVCAR-4 ovarian) was over 100 µM and the TGI (OVCAR-5 ovarian) was over 100 µM. It also gave a TGI (OVCAR-8 ovarian) of over 100 µM, a TGI (RPMI-8226 leukemia) of over 100 µM and a TGI (RXF 393 renal) of over 100 µM. It also gave a TGI (RXF-631 renal) of over 100 µM, a TGI (SF-268 CNS) of over 100 µM and a TGI (SF-295 CNS) of over 100 µM. The TGI (SF-539 CNS) was over 100 µM, the TGI (SK-MEL-2 melanoma) was over 100 µM and the TGI (SK-MEL-28 melanoma) was over 100 µM. For the same compound, the TGI (SK-MEL-5 melanoma) was over 100 µM, the TGI (SK-OV-3 ovarian) was over 100 µM and the TGI (SN12C renal) was over 100 µM. It also gave a TGI (SNB-19 CNS) of 97.7 µM, a TGI (SNB-75 CNS) of 46.7 µM and a TGI (SW-620 colon) of over 100 µM. It also gave a TGI (TK-10 renal) of over 100 µM, a TGI (U251 CNS) of over 100 µM and a TGI (UACC-62 melanoma) of over 100 µM.

With `CCCCCCCCOCC(CO)OCCCCCCCC` (stereo not drawn) the TGI (786-0 renal) was 33.9 µM, the TGI (A498 renal) was 42 µM and the TGI (A549 NSCLC) was 37.2 µM. The TGI (ACHN renal) was 31.8 µM, the TGI (CAKI-1 renal) was over 100 µM and the TGI (CCRF-CEM leukemia) was 42.5 µM. For the same compound, the TGI (COLO 205 colon) was 39.7 µM, the TGI (DLD-1 colon) was 33.1 µM and the TGI (DMS 114 small cell lung) was 42.3 µM. For the same compound, the TGI (DMS 273 small cell lung) was 33.4 µM, the TGI (HCC-2998 colon) was 33.6 µM and the TGI (HCT-116 colon) was 33.6 µM. For the same compound, the TGI (HCT-15 colon) was 29.7 µM, the TGI (HL-60(TB) leukemia) was 34.1 µM and the TGI (HOP-18 NSCLC) was 24.5 µM. It also gave a TGI (HOP-62 NSCLC) of 37.2 µM, a TGI (HOP-92 NSCLC) of 49.2 µM and a TGI (HT29 colon) of 36.6 µM. The TGI (IGROV1 ovarian) was 40.8 µM, the TGI (K-562 leukemia) was 32.4 µM and the TGI (LOX IMVI melanoma) was 32 µM. It also gave a TGI (LXFL 529 NSCLC) of 33.1 µM, a TGI (M14 melanoma) of 67.1 µM and a TGI (M19-MEL melanoma) of 36.3 µM. It also gave a TGI (MALME-3M melanoma) of 34.9 µM, a TGI (MOLT-4 leukemia) of 37.9 µM and a TGI (NCI-H226 lung) of 44.9 µM. It also gave a TGI (NCI-H23 lung) of 33 µM, a TGI (NCI-H460 lung) of 30 µM and a TGI (OVCAR-3 ovarian) of 34.2 µM. It also gave a TGI (OVCAR-4 ovarian) of 34.7 µM, a TGI (OVCAR-5 ovarian) of 32.7 µM and a TGI (OVCAR-8 ovarian) of 37.7 µM. The TGI (RPMI-8226 leukemia) was 42.5 µM, the TGI (RXF-631 renal) was 32 µM and the TGI (SF-268 CNS) was 29.7 µM. It also gave a TGI (SF-295 CNS) of 30.5 µM, a TGI (SK-MEL-28 melanoma) of 34.2 µM and a TGI (SK-MEL-5 melanoma) of 33.8 µM. For the same compound, the TGI (SK-OV-3 ovarian) was over 100 µM, the TGI (SN12C renal) was 31.8 µM and the TGI (SNB-19 CNS) was 41.8 µM. The TGI (SW-620 colon) was 37.4 µM, the TGI (TK-10 renal) was 34.4 µM and the TGI (U251 CNS) was 32.3 µM. It also gave a TGI (UACC-257 melanoma) of 37.1 µM, a TGI (UACC-62 melanoma) of 43.3 µM and a TGI (UO-31 renal) of 35.9 µM.

`COc1c(C)c(O)c2c(=O)cc(-c3ccccc3)oc2c1C` was tested, and the TGI (786-0 renal) was over 100 µM, the TGI (A498 renal) was over 100 µM and the TGI (A549 NSCLC) was over 100 µM. For the same compound, the TGI (ACHN renal) was over 100 µM, the TGI (CAKI-1 renal) was over 100 µM and the TGI (CCRF-CEM leukemia) was over 100 µM. For the same compound, the TGI (DLD-1 colon) was over 100 µM, the TGI (DMS 114 small cell lung) was over 100 µM and the TGI (EKVX NSCLC) was over 100 µM. The TGI (HCC-2998 colon) was over 100 µM, the TGI (HCT-116 colon) was over 100 µM and the TGI (HCT-15 colon) was over 100 µM. The TGI (HOP-18 NSCLC) was over 100 µM, the TGI (HOP-62 NSCLC) was over 100 µM and the TGI (HOP-92 NSCLC) was over 100 µM. For the same compound, the TGI (HT29 colon) was over 100 µM, the TGI (IGROV1 ovarian) was over 100 µM and the TGI (K-562 leukemia) was over 100 µM. It also gave a TGI (KM12 colon) of over 100 µM, a TGI (KM20L2 colon) of over 100 µM and a TGI (LOX IMVI melanoma) of over 100 µM. For the same compound, the TGI (LXFL 529 NSCLC) was over 100 µM, the TGI (M14 melanoma) was over 100 µM and the TGI (M19-MEL melanoma) was over 100 µM. It also gave a TGI (MALME-3M melanoma) of over 100 µM, a TGI (MOLT-4 leukemia) of over 100 µM and a TGI (NCI-H226 lung) of over 100 µM. The TGI (NCI-H23 lung) was over 100 µM, the TGI (NCI-H460 lung) was over 100 µM and the TGI (NCI-H522 lung) was over 100 µM. The TGI (OVCAR-3 ovarian) was over 100 µM, the TGI (OVCAR-4 ovarian) was over 100 µM and the TGI (OVCAR-5 ovarian) was over 100 µM. The TGI (OVCAR-8 ovarian) was over 100 µM, the TGI (RXF-631 renal) was over 100 µM and the TGI (SF-268 CNS) was over 100 µM. The TGI (SF-295 CNS) was over 100 µM, the TGI (SF-539 CNS) was over 100 µM and the TGI (SK-MEL-2 melanoma) was over 100 µM. It also gave a TGI (SK-MEL-28 melanoma) of over 100 µM, a TGI (SK-MEL-5 melanoma) of over 100 µM and a TGI (SK-OV-3 ovarian) of over 100 µM. For the same compound, the TGI (SN12C renal) was over 100 µM, the TGI (SNB-75 CNS) was over 100 µM and the TGI (SNB-78 CNS) was over 100 µM. It also gave a TGI (SW-620 colon) of over 100 µM, a TGI (TK-10 renal) of over 100 µM and a TGI (U251 CNS) of over 100 µM. For the same compound, the TGI (UACC-257 melanoma) was over 100 µM, the TGI (UACC-62 melanoma) was over 100 µM and the TGI (UO-31 renal) was over 100 µM.

Reference: PubChem BioAssay (NCI)
